For one assay, the target named is T1, p-ABHD17C (Homo sapiens, UniProt Q6PCB6).
T1 sequence (Q6PCB6 1-329): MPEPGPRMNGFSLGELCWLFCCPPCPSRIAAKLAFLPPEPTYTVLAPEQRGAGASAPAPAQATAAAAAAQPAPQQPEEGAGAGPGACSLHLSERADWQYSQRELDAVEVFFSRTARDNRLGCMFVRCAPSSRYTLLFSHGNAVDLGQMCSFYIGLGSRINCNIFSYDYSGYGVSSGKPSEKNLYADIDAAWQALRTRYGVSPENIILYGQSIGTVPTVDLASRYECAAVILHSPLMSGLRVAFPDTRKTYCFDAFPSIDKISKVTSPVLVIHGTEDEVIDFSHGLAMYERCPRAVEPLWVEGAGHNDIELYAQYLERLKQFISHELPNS
Kind of assay: SPR (Biacore); co-IP in cells shows disruption of the ABHD17C/ALOX15B interaction. The class given is binding.

Assay [1] has as its target T2, ALOX15B immobilised for SPR (human, UniProt O15296 1-676).
T2 construct: ALOX15B, human
T2 sequence (looked up): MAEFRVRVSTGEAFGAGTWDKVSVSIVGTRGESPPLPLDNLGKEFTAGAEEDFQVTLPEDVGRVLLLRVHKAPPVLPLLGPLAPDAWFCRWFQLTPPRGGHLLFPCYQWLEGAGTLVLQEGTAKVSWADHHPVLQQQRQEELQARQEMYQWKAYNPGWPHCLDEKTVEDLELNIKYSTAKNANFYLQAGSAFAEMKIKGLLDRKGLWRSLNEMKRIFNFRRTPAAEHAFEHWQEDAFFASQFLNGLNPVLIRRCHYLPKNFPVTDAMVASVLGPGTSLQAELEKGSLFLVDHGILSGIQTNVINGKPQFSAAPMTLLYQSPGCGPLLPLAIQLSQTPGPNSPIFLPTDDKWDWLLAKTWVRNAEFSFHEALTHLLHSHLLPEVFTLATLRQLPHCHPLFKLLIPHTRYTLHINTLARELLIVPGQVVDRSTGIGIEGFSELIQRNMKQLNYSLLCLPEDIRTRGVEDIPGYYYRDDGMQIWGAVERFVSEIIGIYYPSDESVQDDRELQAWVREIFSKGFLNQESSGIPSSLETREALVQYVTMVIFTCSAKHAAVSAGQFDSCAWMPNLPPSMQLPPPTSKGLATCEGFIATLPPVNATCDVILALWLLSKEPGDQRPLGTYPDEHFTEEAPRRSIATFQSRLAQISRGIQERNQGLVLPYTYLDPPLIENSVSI
As to the kind of experiment: SPR; ALOX15B immobilised on a Series S Sensor Chip, DCAF10 as analyte. As to conditions: both partners purified.

On p-ABHD17C, `CO[C@]1(CC[C@@H](C)CO[C@@H]2O[C@H](CO)[C@@H](O)[C@H](O)[C@H]2O)O[C@H]2C[C@H]3[C@@H]4CC=C5C[C@@H](O[C@@H]6O[C@H](CO)[C@@H](O[C@@H]7O[C@@H](C)[C@H](O)[C@@H](O)[C@H]7O)[C@H](O)[C@H]6O[C@@H]6O[C@@H](C)[C@H](O)[C@@H](O)[C@H]6O)CC[C@]5(C)[C@H]4CC[C@]3(C)[C@H]2[C@@H]1C` [methyl protodioscin] displayed a Kd of 4.8 µM.

B1: recombinant DCAF10 (natural protein, UniProt Q5QP82 1-559, looked up)
chain: MFPFGPHSPGGDGSAGAGAEEPTPHEGQAAATGPPSPLHPGADATHPPPPARSPRRPGAPSLSPAPRSGELGLPGAPESSTASAPGEPSPPSPPCRRPGPDCRAKSRGRHGLGAGLGGPGARLFGWLKERSLGRGLFVDPARDNFRTMTSLYGSIHPADSVYLSTRTHGAVFNLEYSPDGSVLTVACEQTEVLLFDPISSKHIKTLSEAHEDCVNNIRFLDNRLFATCSDDTTIALWDLRKLNTKVCTLHGHTSWVKNIEYDTNTRLLVTSGFDGNVIIWDTNRYTEDGCPHKKFFHTRFLMRMRLTPDCSKMLISTSSGYLLILHDLDLTKSLEVGSYPILRARRTTSSSDLTTSSSSSGPRVSGSPCHHSDSNSSEKHMSRASQREGVSPRNSLEVVTPEVLGESDHGNCITSLQLHPKGWATLLRCSSNSDDEECTCVYEFQEGAPVRPVSPRCSLRLTHYIEEANVGRGYIKELCFSPDGRMISSPHGYGIRLLGFDKQCSELVDCLPKEASPLRVIRSLYSHNDVVLTTKFSPTHCQIASGCLSGRVSLYQPKF
notes: DCAF10, recombinant
In turn, B1 had a Kd in assay [1] of 0.00696 µM.

Values taken from PMC12463027, “KRAS/ABHD17C/ALOX15B Axis Promotes Pancreatic Cancer Progression via Ferroptosis Evasion” (Advanced Science, 2025).
